Source: patent US11065235B2, “Substituted methanopyrido [2, 1-a] isoindolones as mAChR modulators for treating various associated pathophysiological conditions and process for preparation thereof” (COUNCIL OF SCIENTIFIC & INDUSTRIAL RESEARCH, priority 2017, dated 2021)

Assays:
Format in all cases: cell-based
[1] = biological target: T1, human M5R (Homo sapiens, UniProt P08912); test: NFAT-luciferase assay, M5
T1 construct: expressed in transfected cells; host or cells: HEK-293T
T1 sequence (P08912 1-532): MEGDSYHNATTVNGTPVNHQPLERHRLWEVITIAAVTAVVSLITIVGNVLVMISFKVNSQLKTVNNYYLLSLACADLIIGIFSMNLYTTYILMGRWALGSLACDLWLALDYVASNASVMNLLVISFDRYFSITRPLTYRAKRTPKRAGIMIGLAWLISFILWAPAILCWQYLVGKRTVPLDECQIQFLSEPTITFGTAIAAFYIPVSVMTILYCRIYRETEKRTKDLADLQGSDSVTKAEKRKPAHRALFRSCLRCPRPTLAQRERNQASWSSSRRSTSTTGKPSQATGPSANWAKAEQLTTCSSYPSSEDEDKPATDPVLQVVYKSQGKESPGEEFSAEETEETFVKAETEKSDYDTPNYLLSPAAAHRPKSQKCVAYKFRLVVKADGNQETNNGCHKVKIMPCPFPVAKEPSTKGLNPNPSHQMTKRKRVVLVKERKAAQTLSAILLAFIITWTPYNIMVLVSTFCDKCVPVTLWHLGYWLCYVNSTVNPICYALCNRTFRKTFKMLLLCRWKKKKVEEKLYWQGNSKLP
Experimental: (§1) To measure the agonist or antagonist activity at M1, M3 and M5 muscarinic receptor, NFAT-luciferase activity was performed in HEK-293T cells (procured from NCCS, Pune) by co-transfecting with human M1R or M3R or M5R and pGL4.30 (luc2P/NFAT-RE/Hygro; Promega Corp,) in 96 well format. The transfected cells were incubated at 37° C. in tissue culture incubator with 5% CO2 for 14-16 hours. To determine the if the test compounds are agonist, the transfected cells were treated with either 20 μl/well of carbamoyl choline (as a positive control) at various concentrations (10000 nM to 0.01 nM) or with various concentrations of test compounds (in triplicates) and were further incubated for 12 hrs in a humidified tissue culture incubator at 37° C. with 5% CO2. For antagonist mode assay, test compound incubation was followed by addition of 20 μl of 7 μM carbamoylcholine (agonist) to the plate. Following 12-14 hrs of drug treatment, media from the plate was aspirated and 100 μl of sodium luciferin solution (10 mg/ml) was added and luminescence per well was recorded using luminescence plate reader (BMG Labtech).

[2] = biological target: T2, human M1R (Homo sapiens, UniProt P11229); test: NFAT-luciferase assay, M1
T2 construct: expressed in transfected cells; host or cells: HEK-293T
T2 sequence (P11229 1-460): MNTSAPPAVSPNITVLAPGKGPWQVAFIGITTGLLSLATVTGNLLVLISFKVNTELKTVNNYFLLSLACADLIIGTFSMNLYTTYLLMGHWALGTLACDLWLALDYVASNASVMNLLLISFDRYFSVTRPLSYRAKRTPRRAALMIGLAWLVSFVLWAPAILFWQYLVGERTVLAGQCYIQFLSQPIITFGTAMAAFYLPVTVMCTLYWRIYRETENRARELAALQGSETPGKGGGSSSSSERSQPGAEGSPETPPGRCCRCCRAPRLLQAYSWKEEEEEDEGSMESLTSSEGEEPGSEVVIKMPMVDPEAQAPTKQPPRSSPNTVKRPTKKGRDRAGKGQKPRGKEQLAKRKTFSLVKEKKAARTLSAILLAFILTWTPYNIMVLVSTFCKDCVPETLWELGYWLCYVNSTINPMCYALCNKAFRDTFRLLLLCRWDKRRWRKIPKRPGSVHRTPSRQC
Experimental: as §1

[3] = biological target: T3, human M3R (Homo sapiens, UniProt P20309); test: NFAT-luciferase assay, M3
T3 construct: expressed in transfected cells; host or cells: HEK-293T
Experimental: as §1

T3 sequence (P20309 whole entry): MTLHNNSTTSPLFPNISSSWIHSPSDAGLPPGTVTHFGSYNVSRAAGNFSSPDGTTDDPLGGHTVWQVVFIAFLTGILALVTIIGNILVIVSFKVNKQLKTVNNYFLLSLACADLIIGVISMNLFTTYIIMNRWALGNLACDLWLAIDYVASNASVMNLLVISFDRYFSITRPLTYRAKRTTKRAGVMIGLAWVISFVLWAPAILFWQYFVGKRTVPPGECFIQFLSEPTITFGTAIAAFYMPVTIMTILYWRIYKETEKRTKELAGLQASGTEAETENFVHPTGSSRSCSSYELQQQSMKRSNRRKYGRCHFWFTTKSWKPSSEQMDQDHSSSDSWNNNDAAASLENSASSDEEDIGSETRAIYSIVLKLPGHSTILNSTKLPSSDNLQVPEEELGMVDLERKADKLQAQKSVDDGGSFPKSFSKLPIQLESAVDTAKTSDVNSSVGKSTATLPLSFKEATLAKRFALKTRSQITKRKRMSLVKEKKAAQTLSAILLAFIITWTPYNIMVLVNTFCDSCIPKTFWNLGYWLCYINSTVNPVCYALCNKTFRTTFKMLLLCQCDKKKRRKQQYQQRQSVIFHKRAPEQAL

SMILES: O=C1[C@@H]2c3ccccc3[C@H]3N2[C@@H]2CCCC(OS(=O)(=O)C(F)(F)F)=C2C[C@@]13S(=O)(=O)c1ccccc1 [RG-12, (6S,6aR,11S,12aR)-13-oxo-6-(phenylsulfonyl)-1,2,3,5,6,6a,11,12a-octahydro-6,11-methanoisoindolo[2,1-a]quinolin-4-yl trifluoromethanesulfonate]
- antagonist activity at M5 receptor (in words) [1]: very modest activity
- IC50 ([1]; M5, antagonist, N.A. = not active, read-out: pIC50/pEC50 (Mean ± SEM) M5 (converted)): 269 nM
- antagonist activity at M1 receptor (in words) [2]: very modest activity
- IC50 ([2]; M1, antagonist, N.A. = not active, read-out: pIC50/pEC50 (Mean ± SEM) M1 (converted)): 129 nM
- antagonist activity at M3 receptor (in words) [3]: very modest activity
- selectivity among muscarinic receptors (in words) ([3]; M1, M3 and M5 antagonist profiling): nonselective muscarinic receptor antagonist
